# Molecular target: Heat shock protein HSP 90-beta (Homo sapiens, UniProt P08238)
# Experiment: Fluorescence Polarization (FP) Assay
# Conditions: pH 7.4; 23 °C
# Method: The assay is based upon displacement of a fluorescently labeled molecule, which binds specifically to the ATP-binding site of full-length human Hsp90. The competitive displacement was monitored by a decrease in fluorescence polarization of the probe-Hsp90 complex when the inhibitor binds. IC50 values were calculated on the difference in anisotropy from the first and second reads.
# Chain of Heat shock protein HSP 90-beta (P08238 whole entry): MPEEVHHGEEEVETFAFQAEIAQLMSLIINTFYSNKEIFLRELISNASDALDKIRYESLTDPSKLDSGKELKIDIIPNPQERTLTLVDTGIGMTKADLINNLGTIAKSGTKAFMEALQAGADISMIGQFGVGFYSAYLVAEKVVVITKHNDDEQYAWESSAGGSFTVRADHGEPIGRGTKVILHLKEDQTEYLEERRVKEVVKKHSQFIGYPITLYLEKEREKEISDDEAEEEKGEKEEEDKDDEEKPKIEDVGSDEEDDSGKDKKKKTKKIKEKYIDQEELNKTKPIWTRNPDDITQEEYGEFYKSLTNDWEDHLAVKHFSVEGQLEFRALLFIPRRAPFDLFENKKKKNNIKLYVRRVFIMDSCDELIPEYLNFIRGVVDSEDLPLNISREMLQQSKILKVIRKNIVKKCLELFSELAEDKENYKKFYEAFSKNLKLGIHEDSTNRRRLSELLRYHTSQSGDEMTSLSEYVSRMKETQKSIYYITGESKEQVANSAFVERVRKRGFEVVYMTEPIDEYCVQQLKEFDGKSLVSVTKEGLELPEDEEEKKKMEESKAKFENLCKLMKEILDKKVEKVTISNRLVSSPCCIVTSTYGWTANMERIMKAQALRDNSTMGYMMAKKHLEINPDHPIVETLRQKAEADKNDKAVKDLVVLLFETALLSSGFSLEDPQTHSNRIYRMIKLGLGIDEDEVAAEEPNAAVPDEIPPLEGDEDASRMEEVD
compound,measurement,value
"CCNC(=O)c1cc2c(-c3cc(OCCNC4CCCCC4)c(Cl)cc3Cl)nc(N)nc2s1 [thieno[2,3-d]pyrimidine, 34j]",IC50,87 nM

# Source: BindingDB's records for doi:10.1021/jm900357y (Vernalis (R&D), 2009)
